Experimental data from patent US20120196899A1, “METHODS AND PRODUCTS FOR TREATING INFLAMMATION” (Rock Creek Pharmaceuticals, Inc., priority 2010, published 2012).
Where “and” joins values, the source holds several entries; their conditions need not be identical. Identical values can stand only once. Like-named read-outs stand apart in the source and are kept apart here.

Experiments:
[1] = Concentration in brain extracts after single i.v. bolus; type: in vivo, Sprague-Dawley rats; conditions: for concentration at 0.5 h / concentration at 24 h / concentration at 6 h: Sprague-Dawley, rat, brain, intravenous
Method: Six rats (3 males and 3 females) were dosed per dose group. […] Plasma and brain homogenates were stored at −80° C. until analysis.
An additional 48 rats (24 males and 24 females) received a single intravenous dose via the tail vein at the same doses as mentioned above. At 30 and 360 minutes post administration, 6 rats (3 males and 3 females) per dose group, per time point were euthanized, bled via cardiac puncture, and perfused, and brains were collected. The brains were homogenized. Blood was spun, and plasma was collected. Plasma and brain homogenate were stored at −80° C.
The animals were weighed prior to dosing and received a single i.v. dose of either test compound at a volume of 5 mL/kg. Blood was collected via the venus plexus (retro-orbital) into tubes containing (K2) EDTA. No more than 0.5 mL was collected per time point. […] The brain was removed, weighed, homogenized in sterile 0.9% saline at a volume equal to its weight, and stored at −80° C.
Sample preparation. […] The amount of the test agent in the supernatant was determined by liquid chromatography tandem mass spectrometry (LC/MS/MS).
Analysis. Samples were analyzed by LC/MS/MS using an Agilent 6410 mass spectrometer coupled with an Agilent 1200 high pressure liquid chromatography (HPLC) and a CTC PAL chilled autosampler, all controlled by MassHunter software (Agilent). After separation on a hydrophilic interaction liquid chromatography (HILIC) HPLC column (Sepax) using an acetonitrile-ammonium acetate/acetic acid gradient system, peaks were analyzed by mass spectrometry (MS) using ESI ionization in multiple reaction monitoring (MRM) mode. MassHunter software was used to calculate the concentration of the test compounds in samples from the peak area using the appropriate calibration curves.
Calibration samples. Calibration curves were determined for both rat plasma and brain homogenate. Calibration samples were prepared by diluting a 50× stock solution of the test compound in PBS with blank matrix to the appropriate concentration and these samples were prepared as described above in the sample preparation.

Aβ production = Aβ production in 7W CHO cells; type: cell-based
[2] = test system: Experimental Autoimmune Thyroiditis; test: Experimental Autoimmune Thyroiditis (Example 16A): serum antibodies to PPD and thyroglobulin; type: in vivo, mice
Method: Thyroiditis was induced by injection of thyroglobulin emulsified in complete Freund's adjuvant (CFA). On days 0 and 7, female mice received subcutaneous injection of 100 μg thyroglobulin (2 injections of 50 μg each). Control mice drank water. […] Mice were sacrificed on day 21.
Immunochemistry. Serum from control and anatabine-treated mice was examined to determine levels of antibodies to a foreign antigen (PPD).
Levels of antibodies to thyroglobulin were examined on days 7, 14, and 21 after immunization.

## C1=CCC(c2cccnc2)NC1 (racemic) [Anatabine, 1,2,3,6-tetrahydro-[2,3′]bipyridinyl]
[1]; Anatabine 0.1 mg/kg, Rat Brain, 0.5 hr, individual rats
  Concentration of anatabine in rat brain extract: <LLQ and 21 ng/mL and 34 ng/mL and 25 ng/mL and 30 ng/mL
[1]; Anatabine 0.1 mg/kg, Rat Brain, 6 hr, individual rats
  Concentration of anatabine in rat brain extract: 3 ng/mL and <LLQ (2×) and 5 ng/mL and 4 ng/mL and 2 ng/mL
[1]; Anatabine 0.1 mg/kg, Rat Brain, 24 hr, individual rats
  Concentration of anatabine in rat brain extract: <LLQ (4×) and 2 ng/mL
[1]; Anatabine 0.75 mg/kg, Rat Brain, 0.5 hr, individual rats
  Concentration of anatabine in rat brain extract: 317 ng/mL and 393 ng/mL
[1]; Anatabine 0.75 mg/kg, Rat Brain, 6 hr, individual rats
  Concentration of anatabine in rat brain extract: 28 ng/mL and 19 ng/mL and 17 ng/mL and 27 ng/mL and 20 ng/mL
[1]; Anatabine 0.75 mg/kg, Rat Brain, 24 hr, individual rats
  Concentration of anatabine in rat brain extract: <LLQ
[1]; Anatabine 0.75 mg/kg, female, 24 hr
  Avg. Conc. rat brain: <LLQ
[1]; Anatabine 0.75 mg/kg, male and female, 24 hr
  Avg. Conc. rat brain, combined male and female: <LLQ
[1]; Anatabine 0.75 mg/kg, male, 24 hr
  Avg. Conc. rat brain: <LLQ
[1]; Anatabine 1.0 mg/kg, Rat Brain, 0.5 hr, individual rats
  Concentration of anatabine in rat brain extract: 338 ng/mL and 362 ng/mL and 393 ng/mL
[1]; Anatabine 1.0 mg/kg, Rat Brain, 6 hr, individual rats
  Concentration of anatabine in rat brain extract: 3 ng/mL and 4 ng/mL (2×) and 8 ng/mL (2×) and <LLQ
[1]; Anatabine 1.0 mg/kg, Rat Brain, 24 hr, individual rats
  Concentration of anatabine in rat brain extract: 2 ng/mL and <LLQ (4×)
[1]; Anatabine 1.0 mg/kg, female, 24 hr
  Avg. Conc. rat brain: <LLQ
[1]; 0.1 mg/kg, Concentration of anatabine in rat brain extract, Anatabine 0.1 mg/kg, Rat Brain, 0.5 hr, individual rats
  concentration at 0.5 h: 19 ng/mL
[1]; 0.1 mg/kg, Concentration of anatabine in rat brain extract, Anatabine 0.1 mg/kg, Rat Brain, 24 hr, individual rats
  concentration at 24 h: 3 ng/mL
[1]; 1 mg/kg, Concentration of anatabine in rat brain extract, Anatabine 1.0 mg/kg, Rat Brain, 24 hr, individual rats
  concentration at 24 h: 3 ng/mL
[1]; anatabine 0.75 mg/kg i.v., 24 hr, Female
  Mean concentration in rat brain extracts: <LLQ
[1]; anatabine 0.75 mg/kg i.v., 24 hr, Male
  Mean concentration in rat brain extracts: <LLQ
[1]; anatabine 1.0 mg/kg i.v., 24 hr, Female
  Mean concentration in rat brain extracts: <LLQ
[1]; both sexes, 0.1 mg/kg, Anatabine 0.1 mg/kg, male and female, 0.5 hr, read-out: Avg. Conc. rat brain, combined male and female
  concentration at 0.5 h: 25.8 ng/g
[1]; both sexes, 0.1 mg/kg, Anatabine 0.1 mg/kg, male and female, 6 hr, read-out: Avg. Conc. rat brain, combined male and female
  concentration at 6 h: 3.5 ng/g
[1]; both sexes, 0.1 mg/kg, Anatabine 0.1 mg/kg, male and female, 24 hr, read-out: Avg. Conc. rat brain, combined male and female
  concentration at 24 h: 2.5 ng/g
[1]; both sexes, 0.75 mg/kg, Anatabine 0.75 mg/kg, male and female, 0.5 hr, read-out: Avg. Conc. rat brain, combined male and female
  concentration at 0.5 h: 295 ng/g
[1]; both sexes, 0.75 mg/kg, Anatabine 0.75 mg/kg, male and female, 6 hr, read-out: Avg. Conc. rat brain, combined male and female
  concentration at 6 h: 21.2 ng/g
[1]; both sexes, 0.75 mg/kg, Concentration of anatabine in rat brain extract, Anatabine 0.75 mg/kg, Rat Brain, 6 hr, individual rats
  concentration at 6 h: 16 ng/mL
[1]; both sexes, 1 mg/kg, Anatabine 1.0 mg/kg, male and female, 0.5 hr, read-out: Avg. Conc. rat brain, combined male and female
  concentration at 0.5 h: 334 ng/g
[1]; both sexes, 1 mg/kg, Anatabine 1.0 mg/kg, male and female, 6 hr, read-out: Avg. Conc. rat brain, combined male and female
  concentration at 6 h: 5.4 ng/g
[1]; both sexes, 1 mg/kg, Anatabine 1.0 mg/kg, male and female, 24 hr, read-out: Avg. Conc. rat brain, combined male and female
  concentration at 24 h: 2.5 ng/g
[1]; both sexes, 1 mg/kg, Concentration of anatabine in rat brain extract, Anatabine 1.0 mg/kg, Rat Brain, 0.5 hr, individual rats
  concentration at 0.5 h: 349 ng/mL
[1]; female, 0.1 mg/kg, Anatabine 0.1 mg/kg, female, 0.5 hr, read-out: Avg. Conc. rat brain
  concentration at 0.5 h: 29.7 ng/g
[1]; female, 0.1 mg/kg, Anatabine 0.1 mg/kg, female, 6 hr, read-out: Avg. Conc. rat brain
  concentration at 6 h: 3.7 ng/g
[1]; female, 0.1 mg/kg, Anatabine 0.1 mg/kg, female, 24 hr, read-out: Avg. Conc. rat brain
  concentration at 24 h: 2 ng/g
[1]; female, 0.1 mg/kg, anatabine 0.1 mg/kg i.v., 0.5 hr, Female, read-out: Mean concentration in rat brain extracts
  concentration at 0.5 h: 29.7 ± 4.5 ng/g
[1]; female, 0.1 mg/kg, anatabine 0.1 mg/kg i.v., 6 hr, Female, read-out: Mean concentration in rat brain extracts
  concentration at 6 h: 3.7 ± 1.5 ng/g
[1]; female, 0.1 mg/kg, anatabine 0.1 mg/kg i.v., 24 hr, Female, read-out: Mean concentration in rat brain extracts
  concentration at 24 h: 2 ng/g
[1]; female, 0.75 mg/kg, Anatabine 0.75 mg/kg, female, 0.5 hr, read-out: Avg. Conc. rat brain
  concentration at 0.5 h: 315 ng/g
[1]; female, 0.75 mg/kg, Anatabine 0.75 mg/kg, female, 6 hr, read-out: Avg. Conc. rat brain
  concentration at 6 h: 21 ng/g
[1]; female, 0.75 mg/kg, anatabine 0.75 mg/kg i.v., 0.5 hr, Female, read-out: Mean concentration in rat brain extracts
  concentration at 0.5 h: 315 ± 67.9 ng/g
[1]; female, 0.75 mg/kg, anatabine 0.75 mg/kg i.v., 6 hr, Female, read-out: Mean concentration in rat brain extracts
  concentration at 6 h: 21 ± 6.2 ng/g
[1]; female, 1 mg/kg, Anatabine 1.0 mg/kg, female, 0.5 hr, read-out: Avg. Conc. rat brain
  concentration at 0.5 h: 346 ng/g
[1]; female, 1 mg/kg, Anatabine 1.0 mg/kg, female, 6 hr, read-out: Avg. Conc. rat brain
  concentration at 6 h: 6 ng/g
[1]; female, 1 mg/kg, anatabine 1.0 mg/kg i.v., 0.5 hr, Female, read-out: Mean concentration in rat brain extracts
  concentration at 0.5 h: 346 ± 56.7 ng/g
[1]; female, 1 mg/kg, anatabine 1.0 mg/kg i.v., 6 hr, Female, read-out: Mean concentration in rat brain extracts
  concentration at 6 h: 6 ± 2.8 ng/g
[1]; male, 0.1 mg/kg, Anatabine 0.1 mg/kg, male, 0.5 hr, read-out: Avg. Conc. rat brain
  concentration at 0.5 h: 20 ng/g
[1]; male, 0.1 mg/kg, Anatabine 0.1 mg/kg, male, 6 hr, read-out: Avg. Conc. rat brain
  concentration at 6 h: 3 ng/g
[1]; male, 0.1 mg/kg, Anatabine 0.1 mg/kg, male, 24 hr, read-out: Avg. Conc. rat brain
  concentration at 24 h: 3 ng/g
[1]; male, 0.1 mg/kg, anatabine 0.1 mg/kg i.v., 0.5 hr, Male, read-out: Mean concentration in rat brain extracts
  concentration at 0.5 h: 20 ± 1.4 ng/g
[1]; male, 0.1 mg/kg, anatabine 0.1 mg/kg i.v., 6 hr, Male, read-out: Mean concentration in rat brain extracts
  concentration at 6 h: 3 ng/g
[1]; male, 0.1 mg/kg, anatabine 0.1 mg/kg i.v., 24 hr, Male, read-out: Mean concentration in rat brain extracts
  concentration at 24 h: 3 ng/g
[1]; male, 0.75 mg/kg, Anatabine 0.75 mg/kg, male, 0.5 hr, read-out: Avg. Conc. rat brain
  concentration at 0.5 h: 276 ng/g
[1]; male, 0.75 mg/kg, Anatabine 0.75 mg/kg, male, 6 hr, read-out: Avg. Conc. rat brain
  concentration at 6 h: 21.3 ng/g
[1]; male, 0.75 mg/kg, anatabine 0.75 mg/kg i.v., 0.5 hr, Male, read-out: Mean concentration in rat brain extracts
  concentration at 0.5 h: 276 ± 37 ng/g
[1]; male, 1 mg/kg, Anatabine 1.0 mg/kg, male, 0.5 hr, read-out: Avg. Conc. rat brain
  concentration at 0.5 h: 323 ng/g
[1]; male, 1 mg/kg, Anatabine 1.0 mg/kg, male, 6 hr, read-out: Avg. Conc. rat brain
  concentration at 6 h: 5 ng/g
[1]; male, 1 mg/kg, Anatabine 1.0 mg/kg, male, 24 hr, read-out: Avg. Conc. rat brain
  concentration at 24 h: 2.5 ng/g
[1]; male, 1 mg/kg, anatabine 1.0 mg/kg i.v., 0.5 hr, Male, read-out: Mean concentration in rat brain extracts
  concentration at 0.5 h: 323 ± 35.9 ng/g
[1]; male, 1 mg/kg, anatabine 1.0 mg/kg i.v., 6 hr, Male, read-out: Mean concentration in rat brain extracts
  concentration at 6 h: 5 ± 2.6 ng/g
[1]; male, 1 mg/kg, anatabine 1.0 mg/kg i.v., 24 hr, Male, read-out: Mean concentration in rat brain extracts
  concentration at 24 h: 2.5 ± 0.7 ng/g
[1]; single i.v., rats
  appearance in brain tissue following i.v. administration: rapidly appear in brain tissue
Aβ production
  Aβ production (Aβ1-42, Aβ1-40): concentration-dependent reduction of Aβ production
[2]; 0.05 mg/ml in drinking water, versus control
  levels of antibodies to PPD: no significant difference
[2]; day 7
  levels of antibodies to thyroglobulin: no significant difference
[2]; day 14, p=0.086
  levels of antibodies to thyroglobulin: tended to have lower thyroglobulin antibodies
[2]; day 21
  levels of antibodies to thyroglobulin: no significant difference
